Experiments:
[1] = test system: A549-ACE2 infected with SARS-CoV-2; experiment: cell count relative to DMSO; higher = less toxic; conditions: 24 h
Caco-2 [2] = experiment: cell viability relative to DMSO; higher = less toxic; conditions: 72 h
Calu-3 [3] = experiment: as above; conditions: 72 h
HepG2 [4] = experiment: as above; conditions: 72 h
U2OS [5] = experiment: as above; conditions: 72 h
Vero E6 [6] = experiment: as above; conditions: 72 h
[7] = test system: A549-ACE2 infected with SARS-CoV-2; experiment: SARS-CoV-2 infection rate relative to DMSO; higher = more infection; conditions: 24 h
A549-ACE2 [8] = experiment: drug-induced phospholipidosis relative to tamoxifen; higher = more phospholipidosis
[9] = test system: A549-ACE2 infected with SARS-CoV-2; experiment: morphology score (similarity to uninfected cells); higher = more like uninfected cells; conditions: 24 h
Caco-2 [10] = experiment: relative viability EC50 (midpoint between 100% and the lowest measured viability); higher = less toxic; conditions: 72 h
Calu-3 [11] = experiment: as above; conditions: 72 h
HepG2 [12] = experiment: as above; conditions: 72 h
U2OS [13] = experiment: as above; conditions: 72 h
Vero E6 [14] = experiment: as above; conditions: 72 h
Caco-2 [15] = experiment: drug sensitivity score (DSS) for viability; higher = more toxic; extreme values may be limits of the assay; conditions: 72 h
Calu-3 [16] = experiment: as above; conditions: 72 h
HepG2 [17] = experiment: as above; conditions: 72 h
U2OS [18] = experiment: as above; conditions: 72 h
Vero E6 [19] = experiment: as above; conditions: 72 h
A549-ACE2 [20] = experiment: phospholipidosis EC50; higher = less potent phospholipidosis inducer

COc1ccc2cc1Oc1ccc(cc1)C[C@H]1c3c(cc4c(c3Oc3cc5c(cc3OC)CCN(C)[C@@H]5C2)OCO4)CCN1C [cepharanthine]
Conditions | SARS-CoV-2 infection rate, [7] [%] | cell count, [1] [%] | cell viability, Caco-2 [2] [%] | cell viability, Calu-3 [3] [%] | cell viability, HepG2 [4] [%] | cell viability, U2OS [5] [%] | cell viability, Vero E6 [6] [%] | morphology score, [9]
1 nM | – | – | 93.5 | 105 | 99.5 | 95.7 | 95.7 | –
10 nM | – | – | 102 | 107 | 87.8 | 104 | 98.8 | –
100 nM | – | – | 105 | 99.3 | 95.9 | 97 | 96 | –
0.3 µM | 98 | 104 | – | – | – | – | – | 0.04
1000 nM | – | – | 108 | 96.5 | 87.7 | 97.7 | 88.9 | –
3 µM | 75 | 111 | – | – | – | – | – | 0.53
10 µM | 69 | 122 | – | – | – | – | – | 0.79
10000 nM | – | – | 93.1 | 78.7 | 93.7 | 86.5 | 92.9 | –
30 µM | 27 | 104 | – | – | – | – | – | 0.49

drug-induced phospholipidosis [%], A549-ACE2 [8]
Conditions | 0.3 µM | 0.833333 µM | 3.33333 µM | 6.66667 µM | 10 µM | 30 µM
24 h | 9.38 | 2.99 | 21.4 | 34.2 | 49.7 | 34.6
48 h | 6.7 | 5.05 | 19.4 | 29.3 | 35.4 | –
72 h | 6.61 | 3.04 | 15.2 | 24.3 | 32.4 | –

Conditions | drug sensitivity score | relative viability EC50 [µM]
Caco-2 [10] | – | > 10
Caco-2 [15] | 0 | –
Calu-3 [11] | – | > 10
Calu-3 [16] | 1.2 | –
HepG2 [12] | – | > 10
HepG2 [17] | 0 | –
U2OS [13] | – | > 10
U2OS [18] | 0.3 | –
Vero E6 [14] | – | > 10
Vero E6 [19] | 0 | –

CCN(CC)CCOC(=O)C1(C2CCCCC2)CCCCC1 [dicycloverine]
Conditions | SARS-CoV-2 infection rate, [7] [%] | cell count, [1] [%] | cell viability, Caco-2 [2] [%] | cell viability, Calu-3 [3] [%] | cell viability, HepG2 [4] [%] | cell viability, U2OS [5] [%] | cell viability, Vero E6 [6] [%] | morphology score, [9]
1 nM | – | – | 99.3 | 93.2 | 95.7 | 97 | 96.1 | –
10 nM | – | – | 95.6 | 104 | 97.6 | 99.3 | 94 | –
100 nM | – | – | 97.2 | 91.8 | 103 | 99.3 | 98 | –
0.3 µM | 94 | 97 | – | – | – | – | – | 0.02
1000 nM | – | – | 98.1 | 91.8 | 98.7 | 108 | 92.6 | –
3 µM | 66 | 112 | – | – | – | – | – | 0.62
10 µM | 46 | 114 | – | – | – | – | – | 0.78
10000 nM | – | – | 102 | 102 | 105 | 104 | 108 | –
30 µM | 34 | 118 | – | – | – | – | – | 0.84

drug-induced phospholipidosis [%], A549-ACE2 [8]
Conditions | 0.3 µM | 0.833333 µM | 3.33333 µM | 6.66667 µM | 10 µM | 30 µM
24 h | 4.66 | 1.82 | 4.06 | 5.19 | 6.77 | 68.6
48 h | 6.16 | 1.46 | 3.34 | 3.8 | 4.6 | 45.9
72 h | 5.16 | -0.588 | 0.239 | 2.22 | 2.64 | 30.3

Conditions | drug sensitivity score | relative viability EC50 [µM]
Caco-2 [10] | – | > 10
Caco-2 [15] | 0 | –
Calu-3 [11] | – | > 10
Calu-3 [16] | 0 | –
HepG2 [12] | – | > 10
HepG2 [17] | 0 | –
U2OS [13] | – | > 10
U2OS [18] | 0 | –
Vero E6 [14] | – | > 10
Vero E6 [19] | 0 | –

Cc1ncc(NC(=O)c2ccc(CN3CCN(C)CC3)c(C(F)(F)F)c2)cc1Nc1nccc(-c2cccnc2)n1 [flumatinib]
Conditions | SARS-CoV-2 infection rate [%] | cell count [%] | cell viability [%] | morphology score | phospholipidosis EC50 [µM]
A549-ACE2 [20], 24 h | – | – | – | – | 3.17
A549-ACE2 [20], 48 h | – | – | – | – | 4.74
A549-ACE2 [20], 72 h | – | – | – | – | 5.39
Caco-2 [2], 1 nM | – | – | 105 | – | –
Caco-2 [2], 10 nM | – | – | 107 | – | –
Caco-2 [2], 100 nM | – | – | 101 | – | –
Caco-2 [2], 1000 nM | – | – | 95.5 | – | –
Caco-2 [2], 10000 nM | – | – | 83.2 | – | –
Calu-3 [3], 1 nM | – | – | 104 | – | –
Calu-3 [3], 10 nM | – | – | 92.7 | – | –
Calu-3 [3], 100 nM | – | – | 102 | – | –
Calu-3 [3], 1000 nM | – | – | 100 | – | –
Calu-3 [3], 10000 nM | – | – | 93.1 | – | –
HepG2 [4], 1 nM | – | – | 96.4 | – | –
HepG2 [4], 10 nM | – | – | 108 | – | –
HepG2 [4], 100 nM | – | – | 102 | – | –
HepG2 [4], 1000 nM | – | – | 93.5 | – | –
HepG2 [4], 10000 nM | – | – | 39.9 | – | –
Vero E6 [6], 1 nM | – | – | 95.8 | – | –
Vero E6 [6], 10 nM | – | – | 101 | – | –
Vero E6 [6], 100 nM | – | – | 99.3 | – | –
Vero E6 [6], 1000 nM | – | – | 97.4 | – | –
Vero E6 [6], 10000 nM | – | – | 84.3 | – | –
[1], 0.3 µM | – | 105 | – | – | –
[1], 3 µM | – | 120 | – | – | –
[1], 10 µM | – | 124 | – | – | –
[1], 30 µM | – | 117 | – | – | –
[7], 0.3 µM | 96 | – | – | – | –
[7], 3 µM | 59 | – | – | – | –
[7], 10 µM | 45 | – | – | – | –
[7], 30 µM | 19 | – | – | – | –
[9], 0.3 µM | – | – | – | 0.25 | –
[9], 3 µM | – | – | – | 0.65 | –
[9], 10 µM | – | – | – | 0.69 | –
[9], 30 µM | – | – | – | 0 | –

drug-induced phospholipidosis [%], A549-ACE2 [8]
Conditions | 0.3 µM | 0.833333 µM | 3.33333 µM | 6.66667 µM | 10 µM | 30 µM
24 h | 4.03 | 13.9 | 49.2 | 98.5 | 106 | 5.86
48 h | 3.51 | 7.4 | 29.5 | 74.1 | 89.4 | –
72 h | 4.57 | 8.79 | 24.7 | 66.2 | 84.5 | –

Conditions | drug sensitivity score | relative viability EC50 [µM]
Caco-2 [10] | – | > 10
Caco-2 [15] | 0.8 | –
Calu-3 [11] | – | > 10
Calu-3 [16] | 0 | –
HepG2 [12] | – | 2.28
HepG2 [17] | 4.3 | –
Vero E6 [14] | – | > 10
Vero E6 [19] | 0.5 | –

CSc1ccc2c(c1)N(CCC1CCCCN1C)c1ccccc1S2 (stereo not given) [thioridazine]
Conditions | SARS-CoV-2 infection rate [%] | cell count [%] | cell viability [%] | morphology score | phospholipidosis EC50 [µM]
A549-ACE2 [20], 24 h | – | – | – | – | 3.21
A549-ACE2 [20], 48 h | – | – | – | – | 4.53
A549-ACE2 [20], 72 h | – | – | – | – | 5.9
Caco-2 [2], 1 nM | – | – | 110 | – | –
Caco-2 [2], 10 nM | – | – | 100 | – | –
Caco-2 [2], 100 nM | – | – | 105 | – | –
Caco-2 [2], 1000 nM | – | – | 105 | – | –
Caco-2 [2], 10000 nM | – | – | 69.5 | – | –
Calu-3 [3], 1 nM | – | – | 104 | – | –
Calu-3 [3], 10 nM | – | – | 110 | – | –
Calu-3 [3], 100 nM | – | – | 96.8 | – | –
Calu-3 [3], 1000 nM | – | – | 96.2 | – | –
Calu-3 [3], 10000 nM | – | – | 31.4 | – | –
HepG2 [4], 1 nM | – | – | 105 | – | –
HepG2 [4], 10 nM | – | – | 110 | – | –
HepG2 [4], 100 nM | – | – | 104 | – | –
HepG2 [4], 1000 nM | – | – | 102 | – | –
HepG2 [4], 10000 nM | – | – | 44.5 | – | –
U2OS [5], 1 nM | – | – | 105 | – | –
U2OS [5], 10 nM | – | – | 103 | – | –
U2OS [5], 100 nM | – | – | 102 | – | –
U2OS [5], 1000 nM | – | – | 103 | – | –
U2OS [5], 10000 nM | – | – | 74.7 | – | –
Vero E6 [6], 1 nM | – | – | 106 | – | –
Vero E6 [6], 10 nM | – | – | 103 | – | –
Vero E6 [6], 100 nM | – | – | 104 | – | –
Vero E6 [6], 1000 nM | – | – | 102 | – | –
Vero E6 [6], 10000 nM | – | – | 69.7 | – | –
[1], 0.1 µM | – | 106 | – | – | –
[1], 0.3 µM | – | 104 | – | – | –
[1], 1 µM | – | 110 | – | – | –
[1], 3 µM | – | 121 | – | – | –
[7], 0.1 µM | 94 | – | – | – | –
[7], 0.3 µM | 101 | – | – | – | –
[7], 1 µM | 82 | – | – | – | –
[7], 3 µM | 21 | – | – | – | –
[9], 0.1 µM | – | – | – | 0.31 | –
[9], 0.3 µM | – | – | – | 0.1 | –
[9], 1 µM | – | – | – | 0.34 | –
[9], 3 µM | – | – | – | 0.84 | –

drug-induced phospholipidosis [%], A549-ACE2 [8]
Conditions | 0.3 µM | 0.833333 µM | 3.33333 µM | 6.66667 µM | 10 µM | 30 µM
24 h | 14.9 | 4.83 | 47.8 | 79.3 | 86 | 44.9
48 h | 9.22 | 4.87 | 28.5 | 86.4 | 99.3 | –
72 h | 7.14 | 2.71 | 20 | 83.7 | 117 | –

Conditions | drug sensitivity score | relative viability EC50 [µM]
Caco-2 [15] | 1.1 | –
Calu-3 [11] | – | 2.72
Calu-3 [16] | 4.3 | –
HepG2 [12] | – | 3.36
HepG2 [17] | 2.8 | –
U2OS [18] | 0.8 | –
Vero E6 [19] | 1.2 | –
